Laboratory results reported in patent publication US20230109697A1, “COMBINED ANTI-CYTOKINE THERAPY TO REDUCE METASTATIC CANCER” (The Board of Trustees of the Leland Stanford Junior …, priority 2020, published 2023).

Assays:
CCR2 chemokine receptor = target: T1, CCR2 chemokine receptor (Homo sapiens, UniProt P41597); conditions: cited from earlier work
T1 construct: endogenous in cells; host or cells: THP-1

MYC-HCC = test: Orthotopic MYC-HCC transplant in NSG mice treated with recombinant cytokines; assay type: in vivo, mouse; conditions: for macrophage infiltration increase: IHC staining for F4/80; for metastases (FC): single cytokine vs control, 4 weeks
Method: FIG. 5 Both CCL2 and IL13 are required to promote Twist1-driven metastasis. a. Experimental scheme- Mice orthotopically transplanted with MYC-HCC cells were treated either with PBS or IL13 or CCL2 or CCL2+IL13 recombinant cytokines for 4 weeks. b. Representative histopathology of lung sections from MYC-HCC bearing mice treated with PBS or CCL2+IL13. c. Histopathology of liver ([…]) of MYC-HCC bearing mice treated with PBS or CCL2 or IL13 or CCL2+IL13 and IHC for F4/80 and MYC expression in each group. d. Quantification of number of metastatic nodules in the liver control treated or recombinant cytokine treated MYC-HCC bearing mice. (**p<0.01). e. Quantification of macrophage infiltration in liver by IHC staining for F4/80 of MYC-HCC bearing mice liver treated with PBS or CCL2 or IL13 or CCL2+IL13. f. Histopathology of lung (1X and 20X) of MYC-HCC bearing mice treated with PBS or CCL2 or IL13 or CCL2+IL13 and IHC for F4/80 and MYC expression in each group. g. Quantification of number of metastatic nodules in the lung of control treated or recombinant cytokine treated MYC-HCC bearing mice. (**p<0.01). h. Quantification of macrophage infiltration in lung by IHC staining for F4/80 of MYC-HCC bearing mice liver treated with PBS or CCL2 or IL13 or CCL2+IL13.
Orthotopic transplantation assay: An orthotopic mouse model was established by transplanting mouse MYC- or MYC/Twist1-HCC tumors (1 mm^3) under the liver capsule of NOD/Scid/Gamma (NSG) recipient mice. Bioluminescent (BLI) and MRI scans monitoring are used to monitor tumor engraftment and growth. Mice are euthanized once predetermined specific endpoints are met or based on morbidity whichever occurs first.
in vivo treatment mouse models: For antibody treatment, mice were injected i.p. with isotype control IgG or anti-CCL2 (BioXcell), -IL13 and -IL4 (Genentech) antibody (10 mg/kg body weight three times per week). For recombinant cytokines treatment, mice were injected i.p. three times per week with PBS or CCL2 (Peprotech, 500 ng/mouse), IL13 and IL4 (Peprotech, 250 ng/mouse). For clodronate liposomes (CL) treatment, CL or control liposomes were administered i.p. at 6.5 µl/g body weight 3 times per week to NSGs mice. CL and control treatments were administered to NSG mice previously injected i.v. with 0.5×10^6 MYC/twist1-HCC cells or orthotopically transplanted with MYC/Twist1-HCC tumors. Experimental and control mice were killed 4 weeks after tumor were transplanted. Primary tumors and lung metastases were collected for H&E staining and IHC.

[1] = test system: non-polarized macrophages; test: Macrophage polarization by qPCR, MYC-HCC conditioned medium with recombinant cytokines; assay type: cell-based, mouse; conditions: recombinant cytokine added to cultured MYC-HCC cells
Method: FIG. 11. a. Quantification of migration of macrophages treated with MYC- or MYC/Twist1 -cells conditioned media. b. Expression of M1 marker genes in macrophages treated with conditioned media from MYC-HCC or MYC/Twist1-HCC. c. Spheroid co-culture assay of MYC/Twist1 -cells and macrophages after treatment with either CCL2 antibody or control antibody. F4/80 staining was performed to quantify number of spheroids with macrophage infiltration (*p<0.05). d. Experimental scheme- Conditioned medium of MYC-HCC cells treated with PBS or recombinant IL13 or CCL2 respectively was added to non-polarized macrophages for 48 hours. Macrophage polarization was assessed by qPCR for M2 markers (ARG1, […]) and M1 markers (IFNAR2, CCR2) (**p<0.005).
Quantitative Real-Time PCR: RNA was isolated using RNeasy plus mini kit according to the manufacturer’s instructions (Qiagen). cDNA was synthesized using SuperScript III (ThermoFisher). qPCR was performed using specific primers (Supplemental Table 1) and SYBR Green (Roche) in an Applied Biosystems Real Time PCR System (Life Technologies). Data were normalized to UBC. A minimum of 3 biological and 3 technical replicates were used for all qPCR experiments.

T1 sequence (P41597 whole entry): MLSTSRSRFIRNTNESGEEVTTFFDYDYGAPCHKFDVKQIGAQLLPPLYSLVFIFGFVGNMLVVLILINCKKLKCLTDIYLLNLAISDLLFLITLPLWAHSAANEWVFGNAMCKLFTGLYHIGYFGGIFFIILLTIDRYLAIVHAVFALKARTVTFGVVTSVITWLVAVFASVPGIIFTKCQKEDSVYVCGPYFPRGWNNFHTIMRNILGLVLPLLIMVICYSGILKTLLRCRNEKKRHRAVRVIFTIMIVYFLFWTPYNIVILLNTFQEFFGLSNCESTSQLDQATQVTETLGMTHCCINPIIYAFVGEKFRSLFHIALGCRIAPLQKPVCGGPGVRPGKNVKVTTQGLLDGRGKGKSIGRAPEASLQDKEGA

Molecule	IC50 (CCR2 chemokine receptor; THP-1 cell line, pre-clinical studies, read-out: IC50, inhibition of MCP-1 induced calcium mobilization and chemotaxis) [nM]	selectivity for CCR2 (CCR2 chemokine receptor) [fold]	macrophage infiltration increase (MYC-HCC)	metastases (FC) (MYC-HCC)	M2 marker expression [1]	effect on metastasis (MYC-HCC; mouse, in vivo)
CC(C)(C)N1CCN[C@@H](C(=O)N2CCN(C(=O)Nc3ccc(Cl)c(F)c3)CC2)C1 [AZD2423]	4	> 500				
CCL2: recombinant cytokine CCL2 (Peprotech)			1.8 fold	3	not	
IL13: recombinant cytokine IL13 (Peprotech)			did not increase macrophage infiltration	1	increased M2 marker expression	
recombinant IL4: recombinant cytokine IL4 (Peprotech), control (protein, UniProt P05112 25-153, looked up) Interleukin-4: HKCDITLQEIIKTLNSLTEQKTLCTELTVTDIFAASKNTTEKETFCRAATVLRQFYSHHEKDTRCLGATAQQFHRHKQLIRFLKRLDRNLWGLAGLNSCPVKEANQSTLENFLERLKTIMREKYSKCSS			did not elicit macrophage recruitment			did not elicit macrophage recruitment or increase metastasis
